Assay results reported in patent publication US9932354B2, “Imidazo-oxadiazole and imidazo-thiadiazole derivatives” (Ares Trading S.A., priority 2012, dated 2018).

Tests used:
[1] = tested on: Amyloid-β peptide release (AβTotal), HEK cells overexpressing APP (HEK-APP); test: Amyloid-β peptide release (AβTotal) assay, AlphaLISA on supernatant of HEK-APP cells; type: cell-based; conditions: ratio Abtot vs Ab42, HEK-APP cells, 24 h
Method: (§1) Amyloid-β Peptide Release (Aβ42 & AβTotal) Assay to Determine IC50 Values.
(§2) Compounds are dissolved in and diluted in 100% DMSO and incubated with HEK-APP cells for 24 h at 37° C. in 5% CO2. The supernatant from HEK-APP cells are mixed with antibodies: for Aβ42 detection: AlphaLISA Amyloid-β 1-42 Kit (Perkin Elmer AL203L) Anti-Amyloid β1-42-specific antibody acceptor beads, biotinylated anti-Amyloid-“β1-42” antibody and streptavidin (SA) donor beads diluted in AlphaLISA buffer (to the instructions of the supplier). For Aβ total detection: Custom Anti-Amyloid-βtotal acceptor beads (6E10 acceptor beads), biotinylated anti-Amyloid “β1-42” antibody (Perkin Elmer AL203L) and streptavidin (SA) donor beads diluted in AlphaLISA buffer (to the instructions of the supplier). After addition of supernatant to the antibody mix, the assay is incubated for 4.5 h. Amyloid-β peptide release (Aβ42 & AβTotal) is measured with a Pherastar FS (BMG) multimode reader using the alphascreen module.

[2] = tested on: Amyloid-β peptide release (Aβ42), HEK cells overexpressing APP (HEK-APP); test: Amyloid-β peptide release (Aβ42) assay, AlphaLISA on supernatant of HEK-APP cells; type: cell-based; conditions: Homo sapiens, HEK293, 24 h incubation with compound, read-out: Ab42 IC50 Ranges
Method: as §1, §2

How did the Abtot/Ab42 selectivity ranges [1] turn out when `Cc1ncc2oc(-c3ccc(NC(=O)Cc4ccccc4C(F)(F)F)cc3)nn12` [Example 1, N-[4-(5-Methyl-imidazo[5,1-b][1,2,4]oxadiazol-2-yl)-phenyl]-2-(2-trifluoromethyl-phenyl)-acetamide] was run?
The Abtot/Ab42 selectivity ranges was “b (b: 100 fold > selectivity ≥ 50 fold)”.

And the IC50 [2]?
The IC50 was 500 to 1000 nM.

For `Cc1cccc(CC(=O)Nc2ccc(-c3nn4c(C)ncc4o3)cc2)c1` [Example 2, N-[4-(5-Methyl-imidazo[5,1-b][1,2,4]oxadiazol-2-yl)-phenyl]-2-m-tolyl-acetamide], which Abtot/Ab42 selectivity ranges [1] is on record?
The Abtot/Ab42 selectivity ranges was “c (c: 50 fold > selectivity ≥ 10 fold)”.

And the IC50 [2]?
Its IC50 is 1000 to 2200 nM.

Which results are given for `Cc1ncc2oc(-c3ccc(NC(=O)Cc4cccc(C(F)(F)F)c4)cc3)nn12` [Example 3, N-[4-(5-Methyl-imidazo[5,1-b][1,2,4]oxadiazol-2-yl)-phenyl]-2-(3-trifluoromethyl-phenyl)-acetamide]?
Abtot/Ab42 selectivity ranges [1]: c (c: 50 fold > selectivity ≥ 10 fold); IC50 [2]: 1000 to 2200 nM

Which Abtot/Ab42 selectivity ranges [1] does the source give for `Cc1ncc2oc(-c3ccc(NC(=O)Cc4ccc(Cl)c(C(F)(F)F)c4)cc3)nn12` [Example 4] here?
Its Abtot/Ab42 selectivity ranges is “c (c: 50 fold > selectivity ≥ 10 fold)”.

What about the IC50 [2] of the same compound?
The IC50 was 1000 to 2200 nM.

What does the source list for `Cc1ncc2oc(-c3ccc(NC(=O)Cc4ccc(C(F)(F)F)cc4Br)cc3)nn12` [Example 5, 2-(2-Bromo-4-trifluoromethyl-phenyl)-N-[4-(5-methyl-imidazo[5,1-b][1,2,4]oxadiazol-2-yl)-phenyl]-acetamide]?
Abtot/Ab42 selectivity ranges [1]: c (c: 50 fold > selectivity ≥ 10 fold); IC50 [2]: 500 to 1000 nM

How did the Abtot/Ab42 selectivity ranges [1] turn out when `Cc1ncc2oc(-c3ccc(NC(=O)Cc4ccc(OC(F)(F)F)cc4)cc3)nn12` [Example 6, N-[4-(5-Methyl-imidazo[5,1-b][1,2,4]oxadiazol-2-yl)-phenyl]-2-(4-trifluoromethoxy-phenyl)-acetamide] was run?
Its Abtot/Ab42 selectivity ranges is “c (c: 50 fold > selectivity ≥ 10 fold)”.

What about the IC50 [2] of the same compound?
The IC50 was 500 to 1000 nM.

Which results are given for `Cc1ncc2oc(-c3ccc(NC(=O)Cc4c(F)cc(Cl)cc4F)cc3)nn12` [Example 7, 2-(4-Chloro-2,6-difluoro-phenyl)-N-[4-(5-methyl-imidazo[5,1-b][1,2,4]oxadiazol-2-yl)-phenyl]-acetamide]?
Abtot/Ab42 selectivity ranges [1]: b (b: 100 fold > selectivity ≥ 50 fold); IC50 [2]: 500 to 1000 nM

Which results are given for `CCOc1ccc(CC(=O)Nc2ccc(-c3nn4c(C)ncc4o3)cc2)cc1` [Example 8, 2-(4-Ethoxy-phenyl)-N-[4-(5-methyl-imidazo[5,1-b][1,2,4]oxadiazol-2-yl)-phenyl]-acetamide]?
Abtot/Ab42 selectivity ranges [1]: c (c: 50 fold > selectivity ≥ 10 fold); IC50 [2]: 1000 to 2200 nM

How did the Abtot/Ab42 selectivity ranges [1] turn out when `Cc1ncc2oc(-c3ccc(NC(=O)Cc4cccc(Br)c4)cc3)nn12` [Example 9, 2-(3-Bromo-phenyl)-N-[4-(5-methyl-imidazo[5,1-b][1,2,4]oxadiazol-2-yl)-phenyl]-acetamide] was run?
Its Abtot/Ab42 selectivity ranges is “c (c: 50 fold > selectivity ≥ 10 fold)”.

And the IC50 [2]?
Its IC50 is 500 to 1000 nM.

How did the Abtot/Ab42 selectivity ranges [1] turn out when `Cc1ccc(C)c(CC(=O)Nc2ccc(-c3nn4c(C)ncc4o3)nc2)c1` [Example 10, 2-(2,5-Dimethyl-phenyl)-N-[6-(5-methyl-imidazo [5,1-b][1,2,4]oxadiazol-2-yl)-pyridin-3-yl]-acetamide] was run?
The Abtot/Ab42 selectivity ranges was “c (c: 50 fold > selectivity ≥ 10 fold)”.

And the IC50 [2]?
The IC50 was 1000 to 2200 nM.

How did the Abtot/Ab42 selectivity ranges [1] turn out when `Cc1ncc2oc(-c3ccc(NC(=O)Cc4ccc(OC(F)(F)F)cc4)cn3)nn12` [Example 11, N-[6-(5-Methyl-imidazo[5,1-b][1,2,4]oxadiazol-2-yl)-pyridin-3-yl]-2-(4-trifluoromethoxy-phenyl)-acetamide] was run?
The Abtot/Ab42 selectivity ranges was “b (b: 100 fold > selectivity ≥ 50 fold)”.

What about the IC50 [2] of the same compound?
The IC50 was 100 to 500 nM.

`Cc1ncc2oc(-c3ccc(NC(=O)Cc4ccc(Cl)c(Cl)c4)cn3)nn12` [Example 12, 2-(3,4-Dichloro-phenyl)-N-[6-(5-methyl-imidazo[5,1-b][1,2,4]oxadiazol-2-yl)-pyridin-3-yl]-acetamide] was tested. Which Abtot/Ab42 selectivity ranges [1] did it give?
The Abtot/Ab42 selectivity ranges was “c (c: 50 fold > selectivity ≥ 10 fold)”.

What about the IC50 [2] of the same compound?
Its IC50 is 500 to 1000 nM.

What does the source list for `Cc1ncc2oc(-c3ccc(NC(=O)Cc4cccc5ccccc45)cn3)nn12` [Example 13, N-[6-(5-Methyl-imidazo[5,1-b][1,2,4]oxadiazol-2-yl)-pyridin-3-yl]-2-naphthalen-1-yl-acelamide]?
Abtot/Ab42 selectivity ranges [1]: c (c: 50 fold > selectivity ≥ 10 fold); IC50 [2]: 1000 to 2200 nM

For `Cc1ncc2oc(-c3ccc(NC(=O)Cc4cccc(C(F)(F)F)c4)cn3)nn12` [Example 14, N-[6-(5-Methyl-imidazo[5,1-b][1,2,4]oxadiazol-2-yl)-pyridin-3-yl]-2-(3-trifluoromethyl-phenyl)-acetamide], which Abtot/Ab42 selectivity ranges [1] is on record?
The Abtot/Ab42 selectivity ranges was “c (c: 50 fold > selectivity ≥ 10 fold)”.

What about the IC50 [2] of the same compound?
Its IC50 is 1000 to 2200 nM.

Which results are given for `Cc1ncc2oc(-c3ccc(NC(=O)Cc4cccc(Oc5ccccc5)c4)cn3)nn12` [Example 15, N-[6-(5-Methyl-imidazo[5,1-b][1,2,4]oxadiazol-2-yl)-pyridin-3-yl]-2-(3-phenoxy-phenyl)-acetamide]?
Abtot/Ab42 selectivity ranges [1]: b (b: 100 fold > selectivity ≥ 50 fold); IC50 [2]: 500 to 1000 nM

For `Cc1ncc2oc(-c3ccc(NC(=O)c4ccc(F)c(OC(F)(F)F)c4)cn3)nn12` [Example 16, 4-Fluoro-N-[6-(5-methyl-imidazo[5,1-b][1,2,4]oxadiazol-2-yl)-pyridin-3-yl]-3-trifluoromethoxy-benzamide], which Abtot/Ab42 selectivity ranges [1] is on record?
Its Abtot/Ab42 selectivity ranges is “d (d: 10 fold > selectivity)”.

And the IC50 [2]?
Its IC50 is 1000 to 2200 nM.

With `COc1cc(C(=O)NCc2cccc(C(F)(F)F)c2)ccc1-c1nn2c(C)ncc2o1` [Example 18, 3-Methoxy-4-(5-methyl-imidazo[5,1-b][1,2,4]oxadiazol-2-yl)-N-(3-trifluoromethyl-benzyl)-benzamide] as the compound, how does the Abtot/Ab42 selectivity ranges [1] read?
Its Abtot/Ab42 selectivity ranges is “c (c: 50 fold > selectivity ≥ 10 fold)”.

And the IC50 [2]?
Its IC50 is 1000 to 2200 nM.

For `COc1cc(C(=O)NCc2ccc(Cl)c(Cl)c2)ccc1-c1nn2c(C)ncc2o1` [Example 19, N-(3,4-Dichloro-benzyl)-3-methoxy-4-(5-methyl-imidazo[5,1-b][1,2,4]oxadiazol-2-yl)-benzamide], which Abtot/Ab42 selectivity ranges [1] is on record?
Its Abtot/Ab42 selectivity ranges is “c (c: 50 fold > selectivity ≥ 10 fold)”.

What about the IC50 [2] of the same compound?
The IC50 was 1000 to 2200 nM.

How did the Abtot/Ab42 selectivity ranges [1] turn out when `COc1cc(C(=O)NCc2cccc3ccccc23)ccc1-c1nn2c(C)ncc2o1` [Example 20, 3-Methoxy-4-(5-methyl-imidazo[5,1-b][1,2,4]oxadiazol-2-yl)-N-naphthalen-1-ylmethyl-benzamide] was run?
Its Abtot/Ab42 selectivity ranges is “c (c: 50 fold > selectivity ≥ 10 fold)”.

What about the IC50 [2] of the same compound?
Its IC50 is 1000 to 2200 nM.

Which Abtot/Ab42 selectivity ranges [1] does the source give for `CCc1ncc2oc(-c3ccc(C(=O)NCc4cccc5ccccc45)cc3)nn12` [Example 21] here?
The Abtot/Ab42 selectivity ranges was “c (c: 50 fold > selectivity ≥ 10 fold)”.

What about the IC50 [2] of the same compound?
The IC50 was 1000 to 2200 nM.

With `Cc1nc(C)n2nc(-c3ccc(C(=O)NCc4cccc5ccccc45)cc3)oc12` [Example 22, 4-(5,7-Dimethyl-imidazo[5,1-b][1,2,4]oxadiazol-2-yl)-N-naphthalen-1-ylmethyl-benzamide] as the compound, how does the Abtot/Ab42 selectivity ranges [1] read?
The Abtot/Ab42 selectivity ranges was “c (c: 50 fold > selectivity ≥ 10 fold)”.

What about the IC50 [2] of the same compound?
Its IC50 is 500 to 1000 nM.

For `Cc1nc(C)n2nc(-c3ccc(C(=O)NCc4ccccc4C(F)(F)F)cc3)oc12` [Example 23, 4-(5,7-Dimethyl-imidazo[5,1-b][1,2,4]oxadiazol-2-yl)-N-(2-trifluoromethyl-benzyl)-benzamide], which Abtot/Ab42 selectivity ranges [1] is on record?
The Abtot/Ab42 selectivity ranges was “c (c: 50 fold > selectivity ≥ 10 fold)”.

And the IC50 [2]?
Its IC50 is 1000 to 2200 nM.

How did the IC50 [2] turn out when `Cc1ncc2sc(C(=O)N3CCCC3c3ccc(Cl)cc3)nn12` (stereo not drawn) [Example 118, [2-(4-Chloro-phenyl)-pyrrolidin-1-yl]-(5-methyl-imidazo[5,1-b][1,3,4]thiadiazol-2-yl)-methanone] was run?
Its IC50 is 100 to 500 nM.
